Measured values from patent US7268124B2, “Geranylgeranyl pyrophosphate synthase inhibitors” (University of Iowa Research Foundation, priority 2004, dated 2007).
Where a name gives a salt, the structure may show the parent alone.

Key:
Assay type in all cases: biochemical
FPP synthase = target: T1, FPP synthase (Homo sapiens, UniProt P14324); assay: FPP synthase enzyme inhibition; details: mammalian enzyme; also no inhibition at 1 to 10 nanomolar; read-out: FPP synthase: not inhibited at concentrations as high as
T1 sequence (P14324 1-419): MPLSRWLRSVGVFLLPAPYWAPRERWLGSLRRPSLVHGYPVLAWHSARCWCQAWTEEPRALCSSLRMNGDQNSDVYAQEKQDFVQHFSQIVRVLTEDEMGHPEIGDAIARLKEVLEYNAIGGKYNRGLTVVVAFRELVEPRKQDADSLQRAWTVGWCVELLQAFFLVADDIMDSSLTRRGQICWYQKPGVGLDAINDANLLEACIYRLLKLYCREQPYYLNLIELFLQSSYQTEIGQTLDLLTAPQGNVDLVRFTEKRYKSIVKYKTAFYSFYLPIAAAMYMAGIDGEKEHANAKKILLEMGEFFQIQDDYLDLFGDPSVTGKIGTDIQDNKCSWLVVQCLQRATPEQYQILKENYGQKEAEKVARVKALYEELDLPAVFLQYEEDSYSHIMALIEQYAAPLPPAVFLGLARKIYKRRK
Excerpt: (§1) The ability of a compound of the invention to act as an inhibitor of geranylgeranyl pyrophosphate synthase may be determined using pharmacological models which are well known to the art, for example see Holstein, S. A., et al., Biochemistry 2003, 42, 4384-4391; and Ericsson et al, J. Biological Chemistry, 1993, 268, 832-838. The ability of a compound to inhibit FPP synthase, FPTase, and GGPTase can also be determined using pharmacological models which are well known to the art. The selectivity of a compound as an inhibitor of geranylgeranyl pyrophosphate synthase can be evaluated by comparing it's inhibitory activity against this enzyme with it's activity against another enzyme.

FPTase = FPTase (Homo sapiens, UniProt P49356); assay: FPTase enzyme inhibition; details: mammalian enzyme; also no inhibition at 1 to 10 nanomolar; read-out: FPTase: not inhibited at concentrations as high as
Excerpt: as §1, with “enzyme. In one embodiment of the invention, the compound of the invention is at least 2-fold selective for inhibiting geranylgeranyl pyrophosphate synthase compared to farnesylpyrophosphate. In another embodiment the compound is at least 10-fold selective for inhibiting geranylgeranyl pyrophosphate synthase compared to farnesylpyrophosphate. In another embodiment the compound is at least about 100-fold selective for inhibiting geranylgeranyl pyrophosphate synthase compared to farnesylpyrophosphate. In another embodiment of the invention, the compound of the invention is at least 2-fold selective for inhibiting geranylgeranyl pyrophosphate synthase compared to FPTase or GGPTase. […]” for “enzyme.”

mammalian GGPP synthase = target: T2, mammalian GGPP synthase (Homo sapiens, UniProt O95749); assay: GGPP synthase enzyme inhibition; details: read-out: concentration range that inhibits GGPP synthase by 50%
T2 sequence (O95749 1-300): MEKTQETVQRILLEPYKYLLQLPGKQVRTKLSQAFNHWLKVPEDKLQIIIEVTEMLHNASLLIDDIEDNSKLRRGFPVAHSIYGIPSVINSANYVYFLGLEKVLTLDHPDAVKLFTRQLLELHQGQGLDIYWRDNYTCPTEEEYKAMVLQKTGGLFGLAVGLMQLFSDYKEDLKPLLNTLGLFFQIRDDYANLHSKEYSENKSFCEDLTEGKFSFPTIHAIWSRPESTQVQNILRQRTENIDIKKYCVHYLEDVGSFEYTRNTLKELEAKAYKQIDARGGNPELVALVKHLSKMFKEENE
Excerpt: as §1

IC50 (mammalian GGPP synthase)	SMILES	IC50 (FPP synthase)	IC50 (FPTase)
–	CC(C)=CCC/C(C)=C/CC(C/C=C(\C)CCC=C(C)C)(P(=O)(O)O)P(=O)(O)O [Compound 12, 1-(3,7-dimethyl-octa-2,6-dienyl)-4,8-dimethyl-nona-3,7-dienyl-1,1-bisphosphonic acid, tetrasodium salt]	> 50 µM	> 50 µM
0.001 to 0.01 µM	CC(C)=CCC/C(C)=C/CC(C/C=C(\C)CCC=C(C)C)(P(=O)(OCOC(=O)C(C)(C)C)OCOC(=O)C(C)(C)C)P(=O)(OCOC(=O)C(C)(C)C)OCOC(=O)C(C)(C)C [Compound 13, tetrapivaloyloxymethyl (E)-1,1-bis(4,8-dimethyl-nona-3,7-dienyl)-1,1-bisphosphonate]	> 50 µM	> 50 µM
